Laboratory results from publication PMC11279465, “Dual Inhibitors of P-gp and Carbonic Anhydrase XII (hCA XII) against Tumor Multidrug Resistance with Piperazine Scaffold” (Molecules, 2024).
pKi: −log10 of the molar value. “And” between values parts separate entries of the source, which are not always exact repeats. Equal values may be shown once.

Experiments:
hCA I = target: T1, hCA I (Homo sapiens, UniProt P00915); assay: CA inhibition, stopped-flow CO2 hydrase assay; type: biochemical; conditions: stopped-flow technique; incubation time 6 h; mean of 3 assays
T1 construct: made in house
T1 sequence (P00915 whole entry): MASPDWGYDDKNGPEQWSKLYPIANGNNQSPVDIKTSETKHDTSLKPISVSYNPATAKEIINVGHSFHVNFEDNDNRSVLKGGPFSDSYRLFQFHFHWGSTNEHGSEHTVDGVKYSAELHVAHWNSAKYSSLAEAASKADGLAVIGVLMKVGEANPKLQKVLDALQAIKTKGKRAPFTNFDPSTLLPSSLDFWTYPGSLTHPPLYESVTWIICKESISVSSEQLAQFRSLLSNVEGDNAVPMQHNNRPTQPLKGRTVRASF
Experimental: (§1) Four hCA isoforms were used in this assay: the cytosolic hCA I and II and the tumor-associated transmembrane hCA IX and XII isoforms. Acetazolamide (AAZ) was used as a standard inhibitor.
(§2) An SX.18MV-R Applied Photophysics (Oxford, UK) stopped-flow instrument has been used to assay the catalytic/inhibition of various CA isozymes. […] Saturated CO2 solutions in water at 25 °C were used as substrate. Stock solutions of inhibitors were prepared at a concentration of 10 μM (in DMSO-water 1:1, v/v) and dilutions up to 0.01 nM were carried out with the assay buffer mentioned above. […] Inhibitor and enzyme solutions were preincubated together for 6 h at room temperature prior to assay in order to allow for the formation of the E-I complex. […] The inhibition constants were obtained by non-linear least-squares methods using the Cheng–Prusoff equation, as reported earlier, and represent the mean from at least three different determinations.

hCA IX = target: T2, hCA IX (Homo sapiens, UniProt Q16790); assay: CA inhibition, stopped-flow CO2 hydrase assay; type: biochemical; conditions: stopped-flow technique; incubation time 6 h; mean of 3 assays
T2 construct: made in house
Experimental: as §1, §2

hCA II = target: T3, hCA II (Homo sapiens, UniProt P00918); assay: CA inhibition, stopped-flow CO2 hydrase assay; type: biochemical; conditions: stopped-flow technique; incubation time 6 h; mean of 3 assays
T3 construct: made in house
Experimental: as §1, §2

hCA XII = target: T4, hCA XII (Homo sapiens, UniProt O43570); assay: CA inhibition, stopped-flow CO2 hydrase assay; type: biochemical; conditions: stopped-flow technique; incubation time 6 h; mean of 3 assays
T4 construct: made in house
T4 sequence (O43570 25-354): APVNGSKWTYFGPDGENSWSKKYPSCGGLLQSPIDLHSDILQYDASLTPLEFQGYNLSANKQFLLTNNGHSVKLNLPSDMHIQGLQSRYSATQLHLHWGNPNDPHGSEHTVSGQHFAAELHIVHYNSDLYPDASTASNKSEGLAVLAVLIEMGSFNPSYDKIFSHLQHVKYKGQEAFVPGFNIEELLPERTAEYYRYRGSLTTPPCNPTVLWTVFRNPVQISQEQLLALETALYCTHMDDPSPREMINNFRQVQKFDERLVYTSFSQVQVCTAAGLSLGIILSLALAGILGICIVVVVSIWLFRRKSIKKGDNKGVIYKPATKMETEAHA
Experimental: as §1, §2

K562/DOX cells [1] = assay: Doxorubicin cytotoxicity enhancement assay (MTT); type: cell-based, human; conditions: 72 h
Experimental: K562 is a highly undifferentiated erythroleukemia cell line. The doxorubicin-resistant K562/DOX cells overexpress almost exclusively the transporter membrane protein P-gp.
K562/DOX cells were incubated for 72 h with different concentrations of doxorubicin in combination with 1 or 3 µM of all compounds. […] HT29, A549, HT29/DOX and A549/DOX cells were incubated for 48 h with 5 µM doxorubicin, alone or in combination with 1 or 3 µM of selected compounds. Cell viability of the cell lines was measured by the MTT assay, using a Synergy HT microplate spectrofluorometer (Bio-Tek Instruments, Winooski, VT, USA). The absorbance of untreated cells was considered 100%; results were expressed as a percentage of viable treated cells versus the control untreated cells.

A549/DOX cells = assay: Doxorubicin co-administration assay (MTT); type: cell-based, human; conditions: compound at 3 µM + doxorubicin 5 µM, 48 h
Experimental: (§3) These compounds were then assayed at 1 and 3 µM concentrations in co-administration with doxorubicin at a concentration of 5 µM, which is known to discriminate well between sensitive and resistant cells. […] Moreover, in the A549/DOX cell line, the co-administration of 1, 2, 4–6, 14 and 19, tested at 3 µM, led to the highest enhancement of doxorubicin toxicity reaching a reduction of nearly 55.0% in cell viability.
(§4) K562/DOX cells were incubated for 72 h with different concentrations of doxorubicin in combination with 1 or 3 µM of all compounds. IC50 was the concentration killing 50% of cells and was determined graphically from relative survival curves obtained by GraphPad Prism 5 software (GraphPad, San Diego, CA, USA). HT29, A549, HT29/DOX and A549/DOX cells were incubated for 48 h with 5 µM doxorubicin, alone or in combination with 1 or 3 µM of selected compounds. Cell viability of the cell lines was measured by the MTT assay, using a Synergy HT microplate spectrofluorometer (Bio-Tek Instruments, Winooski, VT, USA). The absorbance of untreated cells was considered 100%; results were expressed as a percentage of viable treated cells versus the control untreated cells.

HT29/DOX cells = assay: Doxorubicin co-administration assay (MTT); type: cell-based, human; conditions: compound at 3 µM + doxorubicin 5 µM, 48 h
Experimental: as §3, §4

K562/DOX cells [2] = assay: Intrinsic cytotoxicity (MTT); type: cell-based, human; conditions: compound alone at 3 µM, 72 h
Experimental: Compounds were first studied at 1 and 3 µM concentrations to evaluate their intrinsic cytotoxicity in both the parental K562 and the resistant K562/DOX cell lines, using the MTT assay. All compounds had no intrinsic cytotoxicity in the parental line.
The intrinsic toxicity of the studied compounds was determined by an MTT assay. K562 and K562/DOX were exposed for 72 h with compounds at 1 and 3 µM concentrations while HT29, A549, HT29/DOX and A549/DOX cells were incubated for 48 h with compounds used at different concentrations (from 10 nM to 50 µM). The percentage of growth compared to the untreated control was transformed into histograms with the GraphPad Prism 5 program.

Structure (SMILES) | pKi (hCA I) | pKi (hCA IX) | pKi (hCA II) | pKi (hCA XII) | RF (Reversal Fold: IC50 of doxorubicin alone / in presence of modulator) (K562/DOX cells [1]; compound at 1 µM) | RF (Reversal Fold: IC50 of doxorubicin alone / in presence of modulator) (K562/DOX cells [1]; compound at 3 µM) | reduction in cell viability (A549/DOX cells) [%] | reduction in cell viability (HT29/DOX cells) [%] | reduction of cellular viability (K562/DOX cells [2])
COc1cc(/C=C/CN2CCN(CCOc3ccc4ccc(=O)oc4c3)CC2)cc(OC)c1OC [Compound 1, (E)-7-(2-(4-(3-(3,4,5-Trimethoxyphenyl)allyl)piperazin-1-yl)ethoxy)-2H-chromen-2-one] | < 5.00 | 7.29 | < 5.00 | 7.89 | 1.6 | 2.3 | ~55.0 | – | –
COc1cc(/C=C/CN2CCN(CCCOc3ccc4ccc(=O)oc4c3)CC2)cc(OC)c1OC [Compound 2, (E)-7-(3-(4-(3-(3,4,5-Trimethoxyphenyl)allyl)piperazin-1-yl)propoxy)-2H-chromen-2-one] | < 5.00 | 7.20 | < 5.00 | 7.53 | 3.8 | 4.5 | ~55.0 | – | –
COc1cc(/C=C/CN2CCN(CCOc3ccc4c(C)cc(=O)oc4c3)CC2)cc(OC)c1OC [Compound 4, (E)-4-Methyl-7-(2-(4-(3-(3,4,5-trimethoxyphenyl)allyl)piperazin-1-yl)ethoxy)-2H-chromen-2-one] | < 5.00 | 7.60 | < 5.00 | 7.48 | 5.7 | 15.8 | – | 65.0 | –
COc1cc(/C=C/CN2CCN(CCCOc3ccc4c(C)cc(=O)oc4c3)CC2)cc(OC)c1OC [Compound 5, (E)-4-Methyl-7-(3-(4-(3-(3,4,5-trimethoxyphenyl)allyl)piperazin-1-yl)propoxy)-2H-chromen-2-one] | < 5.00 | 7.46 | < 5.00 | 7.57 | 5.5 | 27.6 | – | 65.0 | –
COc1cc(/C=C/CN2CCN(CCOc3ccc4oc(=O)ccc4c3)CC2)cc(OC)c1OC [Compound 7, (E)-6-(2-(4-(3-(3,4,5-Trimethoxyphenyl)allyl)piperazin-1-yl)ethoxy)-2H-chromen-2-one] | < 5.00 | 7.29 | < 5.00 | 7.53 | 1 and 1.1 | 1 | – | – | 30–50%
COc1cc(/C=C/CN2CCN(CCCCOc3ccc4oc(=O)ccc4c3)CC2)cc(OC)c1OC [Compound 9, (E)-6-(4-(4-(3-(3,4,5-Trimethoxyphenyl)allyl)piperazin-1-yl)butoxy)-2H-chromen-2-one] | < 5.00 | 7.66 | < 5.00 | 8.14 | 2.5 | 1.3 | – | – | 30–50%
COc1cc(CN2CCN(CCCOc3ccc4ccc(=O)oc4c3)CC2)cc(OC)c1OC [Compound 14, 7-(3-(4-(3,4,5-Trimethoxybenzyl)piperazin-1-yl)propoxy)-2H-chromen-2-one] | < 5.00 | 7.40 | < 5.00 | 7.87 | 1.0 | 3.4 | ~55.0 | 65.0 | –
COc1cc(CN2CCN(CCOc3ccc4oc(=O)ccc4c3)CC2)cc(OC)c1OC [Compound 19, 6-(2-(4-(3,4,5-Trimethoxybenzyl)piperazin-1-yl)ethoxy)-2H-chromen-2-one] | < 5.00 | 7.07 | < 5.00 | 8.24 | 1.4 | 2.2 | ~55.0 | 65.0 | –
